In US9415040B2 (priority 2008, dated 2016):

Tests used:
[1] = tested on: Chromobacterium violaceum
[2] = tested on: LuxN F163A/R245L/S184N/G271D; details: quadruple mutant LuxN F163A/R245L/S184N/G271D; EC50 could not be determined
LuxN E233A = details: even at 500 μM AI-1, EC50 could not be assigned
LuxN F202A = details: even at 500 μM AI-1, EC50 could not be assigned
LuxN S205P = details: even at 500 μM AI-1, EC50 could not be assigned
LuxN P226T = details: even at 500 μM AI-1, EC50 could not be assigned

| Structure (SMILES) | Median survival of C. elegans [1] [days] | Light production phenotype with AI-1 [2] | Light production phenotype with AI-1 (LuxN E233A) | Light production phenotype with AI-1 (LuxN F202A) | Light production phenotype with AI-1 (LuxN S205P) | Light production phenotype with AI-1 (LuxN P226T) |
| --- | --- | --- | --- | --- | --- | --- |
| N[C@H]1CCOC1=O [HSL] | 4 | – | – | – | – | – |
| CC(O)CC(=O)NC1CCOC1=O (stereo not drawn) [AI-1, 3-hydroxybutanoyl homoserine lactone] | – | constitutively bright at all AI-1 concentrations | dark phenotype | dark phenotype | dark phenotype | dark phenotype |
